According to paper PMC6662923 (Chemical research in toxicology, 2018):

Experiments:
[1] = ref Table S4; cited from earlier work
[2] = human liver microsomes, 2 h incubation; cited from earlier work
male Swiss Webster mice = assay: Lethality assay in mice; details: for Time of most overdose events after drug exposure: bolus iv injection
murine μ-OR = details: cited from earlier work
[3] = post-mortem toxicology reports; cited from earlier work
Lethality assay in mice = details: male, Swiss Webster, mouse, in vivo, iv
mice = system: mice; parameters: unit not given beside the values; details: literature value for LD50 in mice, ref not given; cited from earlier work

Compound | Solubility in aqueous solution [1] | Conversion to mitragynine [2] | Time of most overdose events after drug exposure (male Swiss Webster mice) | Observations after oral dosing (male Swiss Webster mice; oral, no deaths observed) | Mode of binding at the murine μ-OR (murine μ-OR) | Reported urine concentrations in overdose deaths involving Kratom [3] | LD50 oral (male Swiss Webster mice; oral, doses given in mg/kg) | LD50 at 24 h (Lethality assay in mice) | LD50 iv, literature value (mice)
CC[C@@H]1CN2CC[C@@]3(O)C(=Nc4cccc(OC)c43)[C@@H]2C[C@@H]1/C(=C\OC)C(=O)OC [7-hydroxymitragynine, 7-Hydroxymitragynine] | low solubility | 45% | ≤ 10 min | severe respiratory depression and seizures were observed | – | – | – | – | –
mitragynine | low solubility | – | ≤ 10 min | – | competitive antagonist | 0.167 to 1.2 µg/mL | 547.7 | – | –
CC(=O)Oc1ccc2c3c1O[C@H]1[C@@H](OC(C)=O)C=C[C@H]4[C@@H](C2)N(C)CC[C@@]341 [heroin] | – | – | – | – | – | – | – | 23.7 mg/kg | 21.8
